In patent US20220362223A1, “ORAL FORMULATION OF X842” (Cinclus Pharma Holding AB, priority 2019, published 2022):
Values after ≈ are worked out from the molar mass of the structure shown.

Key:
clinical = experiment: clinical; design: species or system human; settings: in vivo
Experimental: (§1) X842 is a prodrug of linaprazan, which was disclosed in WO 99/55706 and previously studied in Phase I and II studies. […] A clinical Phase I study has shown that administration of a single dose of X842 can maintain the intragastric acidity above pH 4 for 24 hours. X842 is therefore tailored for patients with severe erosive gastroesophageal reflux disease (eGERD).
(§2) It is estimated that this requires a minimal plasma concentration (Cmin) of linaprazan of at least about 240 nmol/L after 22 hours. At such doses, a once daily administration of the formulation would be sufficient. Therefore, in another embodiment, the invention relates to a formulation as disclosed herein, wherein the formulation provides a Cmin of linaprazan in a human of at least about 240 nmol/L after 22 hours following administration of the oral formulation to said human. In a preferred embodiment, the invention relates to a formulation as disclosed herein, wherein a unit dose of the formulation provides a Cmin of linaprazan in a human of at least about 240 nmol/L after 22 hours following administration of the oral formulation to said human.

gastric acid production [1] = settings: Phase I and II studies; cited from earlier work
[2] = Solubility of X842 in water; format: physicochemical
Description: The solubility of X842 is very low. […] This low solubility is problematic for solid oral formulations, and especially for solid immediate release formulations where the active ingredient should dissolve in only a short time period.

gastric acid production [3] = experiment: Clinical Phase I study of X842: intragastric pH / gastric acid control; format: in vivo, human
Experimental: as §1, §2

## Cc1cccc(C)c1CNc1cc(C(=O)NCCO)cn2c(C)c(C)nc12 [linaprazan]
clinical; human
  concentration at 22 h: ≥ 240 nM
Gastric acid production [1]
  duration of acid inhibition: too short duration of acid inhibition
  elimination from the body: quickly eliminated from the body
  onset of action / effect at first dose: fast onset of action and full effect at first dose
  tolerability: well tolerated

## Cc1cccc(C)c1CNc1cc(C(=O)NCCOC(=O)CCCC(=O)O)cn2c(C)c(C)nc12 [Example X842, 5-{2[({8-[(2,6-dimethylbenzyl)amino]-2,3-dimethylimidazo[1,2-a]pyridine-6-yl}carbonyl)-amino]ethoxy}-5-oxopentanoic acid]
[2]; pH 6.8
  solubility in water: practically insoluble
[2]; water, simulated gastric fluid, pH 1.0
  solubility: ~113 µg/mL (≈ 235 µM)
clinical; human
  half-life in the body: longer half-life
clinical
  metabolism after absorption into the blood stream: quickly metabolized into linaprazan
  plasma concentration of X842: only very low and difficult to determine
Gastric acid production [3]; compared to linaprazan
  control of gastric acid production: total control of the gastric acid production for a longer time
Gastric acid production [3]; single dose, clinical Phase I
  time intragastric acidity is maintained above pH 4: 24 hours
